In patent US11607466B2, “Tumor and immune cell imaging based on PD-L1 expression” (The Johns Hopkins University, priority 2016, dated 2023):
Values belong to the compound of their own block, whether it stands above or below them.

How the values were obtained:
[1] = target: T1, PD-L1 in A549-iPDL1 cells (Homo sapiens, UniProt Q9NZQ7); assay: Binding studies in doxycycline-inducible A549-iPDL1 cells; type: cell-based
T1 construct: expressed in transfected cells; host or cells: A549 NSCLC cells, lentiviral pINDUCER20, G418-selected, doxycycline-induced
From the text: To do so, an A549 NSCLC cell line with doxycycline-inducible PD-L1 expression (A549-iPD-L1) was generated. A549 is a Kras G12S lung adenocarcinoma cell line that expresses low PD-L1 at baseline.

PD-L1 in MDAMB231 cells = target: T2, PD-L1 in MDAMB231 cells (Homo sapiens, UniProt Q9NZQ7); assay: In vitro binding of [64Cu]WL12 to MDAMB231 and SUM149 cells; type: cell-based; conditions: 1 h incubation
T2 construct: MDAMB231 breast cancer cells, which naturally express PD-L1; endogenous in cells; host or cells: MDAMB231 (ATCC)
Description: (§1) 1.4.9. […] After incubation, cells were washed three times with cold PBS prior to counting on an automated gamma counter (1282 Compugamma CS, Pharmacia/LKBNuclear, Inc., Gaithersburg, Md.). […] Mean fluorescence intensity values were correlated with % incubated dose (% ID) uptake. All the cell uptake studies were performed in triplicate for each cell line and repeated three times.

[2] = target: T3, PD-L1 in A549-iPDL1 tumors (Homo sapiens, UniProt Q9NZQ7); assay: [64Cu]WL12 PET and biodistribution in A549-iPDL1 and A549 xenografts; type: in vivo; conditions: 72 h of doxycycline treatment
T3 construct: expressed in transfected cells; host or cells: A549 NSCLC cells, lentiviral pINDUCER20, G418-selected, doxycycline-induced; as xenografts for the in vivo unit
From the text: To do so, an A549 NSCLC cell line with doxycycline-inducible PD-L1 expression (A549-iPD-L1) was generated. A549 is a Kras G12S lung adenocarcinoma cell line that expresses low PD-L1 at baseline. It has been transduced with PD-L1 in the all-in-one lentivirus pINDUCER20 vector (Meerbrey, et al., 2011), selected with G418, confirmed for PD-L1 induction by flow cytometry (FIG. 37A) and used for in vitro and in vivo studies. Cy5-PD-L1-mAbs binding to doxycycline-treated A549-iPDL1 cells was blocked by WL12 validating the specificity of WL12 (FIG. 37B). […] Accordingly, it is expected that PET will play a key role in quantifying dynamic changes in PD-L1 expression within the standard clinical work flow, providing a novel way to inform therapy decisions.

PD-L1 in hPD-L1 cells = target: T4, PD-L1 in hPD-L1 cells (Homo sapiens, UniProt Q9NZQ7); assay: In vitro binding of [64Cu]WL12 to hPD-L1 and CHO cells; type: cell-based
T4 construct: expressed in transfected cells; grown as tumours in NSG mice for the in vivo units
Description: as §1

hPD-L1 tumors [3] = target: T5, hPD-L1 tumors (Homo sapiens, UniProt Q9NZQ7); assay: PET-CT imaging of [64Cu]WL12 in mice with hPD-L1 and CHO tumors; type: in vivo, mouse
T5 construct: expressed in transfected cells; grown as tumours in NSG mice for the in vivo units
Description: 1.4.10. Animal Models: Animal studies were performed according to the protocols approved by the JHU Animal Care and Use Committee (ACUC). Six-to-eight week old, female, non-obese diabetic severe-combined immunodeficient gamma (NSG) mice were obtained from the JHU Immune Compromised Animal Core. Mice were implanted subcutaneously in opposite sides of the upper flanks with 10×10^6 of CHO-PDL1 and CHO cells. […] 1.4.11. […] Mice were maintained at 1% Isofluorane levels during imaging. PET images were acquired in two bed positions at 10 min/bed in an ARGUS small-animal PET/CT scanner (Sedecal, Madrid, Spain). A CT scan (512 projections) was performed at the end of each PET scan for anatomical co-registration. PET data were reconstructed using the two-dimensional ordered subsets-expectation maximization algorithm (2D-OSEM) and corrected for dead time and radioactive decay. The % ID per cc values were calculated based on a calibration factor obtained from a known radioactive quantity. Final data visualization and image generation was accomplished using Amira® (FEI, Hillsboro, Oreg.).

hPD-L1 tumors [4] = target: T5, hPD-L1 tumors; assay: in vivo; set-up: species or system mouse
Description: (§2) 1.4.10. Animal Models: Animal studies were performed according to the protocols approved by the JHU Animal Care and Use Committee (ACUC). Six-to-eight week old, female, non-obese diabetic severe-combined immunodeficient gamma (NSG) mice were obtained from the JHU Immune Compromised Animal Core. Mice were implanted subcutaneously in opposite sides of the upper flanks with 10×10^6 of CHO-PDL1 and CHO cells. […] 1.4.12. […] For the blocking study, mice were co-injected with 2 mg/kg (50 μg) of unmodified peptide with the radiotracer. The percentage of injected dose per gram of tissue (% ID/g) values were calculated based on signal decay correction and normalization to external [^64Cu] standards, which were measured in triplicate. Biodistribution data shown is mean±the standard error of the mean (SEM).

in vivo = assay: in vivo; set-up: species or system mouse; conditions: female, mouse, in vivo, iv, 40 uCi, total radioactivity, radioactivity uptake
Description: as §2

PD-L1 in MDAMB231 tumors [5] = target: T6, PD-L1 in MDAMB231 tumors (Homo sapiens, UniProt Q9NZQ7); assay: Tumor PD-L1 engagement by PD-L1 mAbs measured with [64Cu]WL12, MDAMB231 xenografts; type: in vivo; conditions: mAb 24 h prior, 120 min after tracer injection, ex vivo
T6 construct: MDAMB231 breast cancer cells, which naturally express PD-L1; endogenous in cells; host or cells: MDAMB231 (ATCC); as xenografts in NSG mice for the in vivo units
Description: To evaluate the effect of dose on tumor PD-L1 occupancy at the tumor, mice bearing MDAMB231 tumors were injected with escalating doses of AtzMab from 0.009 to 24 mg/kg body weight.

[6] = target: T7, PD-L1 in HCC827, H226, hPD-L1 and MDAMB231 cells (Homo sapiens, UniProt Q9NZQ7); assay: [64Cu]WL12 binding to PD-L1-positive cells in the presence of 60 nM mAbs; type: cell-based; conditions: 60 nM mAb vs PBS control
T7 construct: Each of which naturally expresses PD-L1; endogenous in cells; host or cells: HCC827, H226, MDAMB231 (endogenous) and CHO-hPD-L1 (stably transfected)
Description: Non-interacting residues are shown in gray. […] Mean fluorescence intensities were determined by flow cytometry.
HCC827 and H226 non-small cell lung cancer (NSCLC) cells also were tested.

PD-L1 in MDAMB231 tumors [7] = target: T6, PD-L1 in MDAMB231 tumors; assay: Tumor PD-L1 engagement by PD-L1 mAbs measured with [64Cu]WL12, MDAMB231 xenografts; type: in vivo; conditions: AtzMab 20 mg/kg, AveMab 10 mg/kg, DurMab 10 mg/kg, 24 h prior to tracer
[8] = target: T8, PD-L1 in human NSCLC and TNBC xenografts (Homo sapiens, UniProt Q9NZQ7); conditions: in vivo; cited from earlier work
T8 construct: host or cells: MDAMB231, SUM149 (TNBC), H2444, H1155 (NSCLC) xenografts in mice

[9] = mouse, in vivo, iv, 40 uCi, 1 h

T5 sequence (Q9NZQ7 19-290): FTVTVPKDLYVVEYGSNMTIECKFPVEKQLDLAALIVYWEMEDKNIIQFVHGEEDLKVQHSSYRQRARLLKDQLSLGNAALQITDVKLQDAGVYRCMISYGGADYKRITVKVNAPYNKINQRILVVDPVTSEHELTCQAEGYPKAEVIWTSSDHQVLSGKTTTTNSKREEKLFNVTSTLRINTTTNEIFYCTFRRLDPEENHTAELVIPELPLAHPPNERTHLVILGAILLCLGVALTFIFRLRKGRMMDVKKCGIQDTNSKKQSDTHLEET
T4 sequence (Q9NZQ7 19-290): as above
T6 sequence (Q9NZQ7 19-290): as above
T1 sequence (Q9NZQ7 19-290): as above
T8 sequence (Q9NZQ7 19-290): as above
T7 sequence (Q9NZQ7 19-290): as above
T3 sequence (Q9NZQ7 19-290): as above
T2 sequence (Q9NZQ7 19-290): as above

- increase in radioactivity uptake, doxycycline treated vs. untreated cells ([1]; A549-iPDL1 cells): 5.5 fold
- uptake of radioactivity in MDAMB231 cells compared to SUM149 cells (PD-L1 in MDAMB231 cells): Two-fold higher
- accumulation in A549-iPDL1 tumors higher than in A549 control tumors [2]: 65%
- correlation (r) of mean fluorescence intensity with uptake of radioactivity (PD-L1 in hPD-L1 cells; hPD-L1, MDAMB231, SUM149, CHO cells): 0.9977
- reduction in bound [64Cu]WL12 (PD-L1 in hPD-L1 cells; hPD-L1 cells, 1 μM blocking dose of WL12): > 95%
- increase in bound radioactivity compared to negative control CHO cells (PD-L1 in hPD-L1 cells; hPD-L1 cells, 1 h incubation): 43 fold
- uptake of the incubated dose (PD-L1 in hPD-L1 cells; hPD-L1 cells, 1 h incubation): > 50%
- uptake in hPD-L1 tumor compared to CHO tumor, PET-CT (hPD-L1 tumors [3]; 24 h after injection): Increased uptake
- reduction in % ID/g values in hPD-L1 tumors (hPD-L1 tumors [4]; co-injected excess WL12 (50 μg, 2 mg/kg), 2 h): > 75%
- change of uptake in control CHO tumors with blocking dose (hPD-L1 tumors [4]; co-injected excess WL12, 2 h): no significant difference
- affinity for mouse PD-L1 (hPD-L1 tumors [4]; inferred from low uptake in spleen, thymus, brown fat): very low or no affinity
Compound: CCCC[C@H]1C(=O)N(C)[C@@H](CCCC)C(=O)N[C@@H](CCCNC(=O)CCC(C(=O)O)N2CCN(CC(=O)O)CCN(CC(=O)O)CCN(CC(=O)O)CC2)C(=O)N[C@H](C(=O)NCC(N)=O)CSCC(=O)N[C@@H](Cc2ccc(O)cc2)C(=O)N(C)[C@@H](C)C(=O)N[C@@H](CC(N)=O)C(=O)N2CCC[C@H]2C(=O)N[C@@H](Cc2c[nH]cn2)C(=O)N[C@@H](CC(C)C)C(=O)N2C[C@H](O)C[C@H]2C(=O)N[C@@H](Cc2c[nH]c3ccccc23)C(=O)N[C@@H](CO)C(=O)N[C@@H](Cc2cn(C)c3ccccc23)C(=O)N1C (single isomer, unassigned) [[^64Cu]WL12, metal not drawn]
- time of increased uptake in hPD-L1 tumors, PET (hPD-L1 tumors [3]; 150 μCi i.v.): as early as 10 min and retained through 24 h post-injection
- tumor-to-blood ratio (hPD-L1 tumors [4]; [9]): 4.7±1.2
- tumor-to-muscle ratio (hPD-L1 tumors [4]; [9]): 25.6±1.9
- tissue uptake at 1 h (in vivo; control CHO tumor): 4 ± 0.6 %ID/g
- tissue uptake at 1 h (in vivo; hPD-L1 tumors): 14.9 ± 0.8 %ID/g
- tissue uptake at 1 h (in vivo; kidneys): 34.4 ± 3.1 %ID/g
- tissue uptake at 1 h (in vivo; liver): 24.2 ± 2.5 %ID/g

- decrease of [64Cu]WL12 binding to doxycycline-treated A549-iPDL1 cells ([1]; 60 nM mAb): 65%
- less uptake of [64Cu]WL12 in tumors vs saline controls (PD-L1 in MDAMB231 tumors [5]): approximately 60%
- [64Cu]WL12 binding to PD-L1-positive cells [6]: inhibited
- [64Cu]WL12 uptake in MDAMB231 xenografts (PD-L1 in MDAMB231 tumors [7]): significantly reduced
Compound: DurMab: FDA-approved PD-L1 mAb durvalumab

Compound: [^111In]AtzMab: 111In-radiolabeled atezolizumab
- uptake in PD-L1high H2444 vs PD-L1low H1155 NSCLC xenografts [8]: Increased uptake
- uptake in PD-L1high MDAMB231 vs PD-L1low SUM149 TNBC xenografts [8]: Increased uptake
